{
  "source": "patent US20100047776A1",
  "about": "“Cell-based screening assays for compounds that regulate the expresion of a tumor marker dj-1” (Caritas St. Elizabeth Medical Center of Boston Inc., priority 2005, published 2010)",
  "key": {"[1]": {"tested_on": "0DJ-Luc (luciferase gene lacking the DJ-1 promoter sequence)", "assay": "Luciferase reporter assay in control cell lines expressing 0DJ-Luc", "format": "cell-based, human", "conditions": "H2O2 treatment", "text": "(§1) To develop a cell-based assay system where one can identify agents that transcriptionally modulate DJ-1, a plasmid vector (−1000DJ-Luc) was made that expressed a luciferase reporter gene directed by the human DJ-1 promoter containing 1000 base pairs upstream and 65 base pairs downstream sequences (−1000 to +65) of the transcription initiation site (FIG. 1). A […] sequence containing +46 to +65 of the DJ-1 gene was fused to the luciferase gene to generate the control plasmid (0DJLuc). A neomycin resistance gene was inserted into the vectors as a selection marker.\n(§2) Using the vector described in Example 1, human SH-SY5Y neuroblastoma cells were transfected with either −1000DJLuc or 0DJLuc; stably transfected clones were subsequently identified. A plasmid encoding β-galactosidase gene was co-transfected to serve as an internal control for luciferase expression.\n(§3) To confirm the stable expression of the reporter genes and to evaluate these cells as devices for drug discovery, stably transfected SH-SY5Y cells were treated with increasing doses of H2O2, which has been reported to upregulate DJ-1. […] Luciferase and β-galactosidase activities were then determined. […]\n(§4) C. […] Luciferase and β-galactosidase activities were determined using assay kits following manufacturer's protocol (Promega)."}, "human DJ-1 promoter": {"tested_on": "human DJ-1 promoter", "assay": "DJ-1 promoter luciferase reporter assay in SH-SY5Y cells stably expressing −1000DJ-Luc", "format": "cell-based", "conditions": "SH-SY5Y cells stably expressing −1000DJ-Luc and CMV-β-galactosidase; increasing doses of H2O2 for 24 hours; untreated sample designated as 100; FIG. 2", "text": "as §1, §2, §3, §4"}},
  "data": [
    {"smiles": "OO", "note": "[H2O2]", "values": [
      {"measurement": "Luciferase activity in control cell lines expressing 0DJ-Luc", "setting": "[1]", "result": "not affected"},
      {"measurement": "Luciferase activity normalized to β-galactosidase activity (human DJ-1 promoter activation)", "setting": "human DJ-1 promoter", "result": "activated the human DJ-1 promoter in a dose dependent manner"}
    ]}
  ]
}
